Measured values from ChEMBL document CHEMBL1201862, “PubChem BioAssay data set” (2004).
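The compound was tested at five concentrations on cells cultured in 96-well plates, with a 48-hour exposure period. GI50: concentration for 50% inhibition of growth.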 The source made the active and inactive calls. Cut-off read from the data, not from the text of the source: active = GI50 up to about 1.1 µM and inactive = higher.

Assays:
Experiment in all cases: growth of human tumour cells (NCI), 48 h
SK-MEL-2 = tested on: SK-MEL-2
HCC 2998 = tested on: HCC 2998
SF-268 = tested on: SF-268
UACC-62 = tested on: UACC-62
HCT-15 = tested on: HCT-15
K562 = tested on: K562
Hs-578T = tested on: Hs-578T
786-0 = tested on: 786-0
MCF7 = tested on: MCF7
SK-OV-3 = tested on: SK-OV-3
Malme-3M = tested on: Malme-3M
NCI-H23 = tested on: NCI-H23
SNB-19 = tested on: SNB-19
CCRF-CEM = tested on: CCRF-CEM
BT-549 = tested on: BT-549
RPMI-8226 = tested on: RPMI-8226
UACC-257 = tested on: UACC-257
SK-MEL-28 = tested on: SK-MEL-28
MDA-MB-231 = tested on: MDA-MB-231
UO-31 = tested on: UO-31
HL-60 = tested on: HL-60
NCI-H522 = tested on: NCI-H522
HCT-116 = tested on: HCT-116
SW-620 = tested on: SW-620
OVCAR-3 = tested on: OVCAR-3
SR = tested on: SR
MDA-N = tested on: MDA-N
ACHN = tested on: ACHN
RXF 393 = tested on: RXF 393
M14 = tested on: M14
PC-3 = tested on: PC-3
HOP-92 = tested on: HOP-92
T47D = tested on: T47D
MDA-MB-435 = tested on: MDA-MB-435
MOLT-4 = tested on: MOLT-4
SK-MEL-5 = tested on: SK-MEL-5
HOP-62 = tested on: HOP-62
TK-10 = tested on: TK-10
SF-295 = tested on: SF-295
NCI-H460 = tested on: NCI-H460
CAKI-1 = tested on: CAKI-1
SN12C = tested on: SN12C
OVCAR-5 = tested on: OVCAR-5
LOX IMVI = tested on: LOX IMVI
SF-539 = tested on: SF-539
EKVX = tested on: EKVX
IGROV-1 = tested on: IGROV-1
SNB-75 = tested on: SNB-75
OVCAR-4 = tested on: OVCAR-4
COLO 205 = tested on: COLO 205
KM12 = tested on: KM12
A549 = tested on: A549
A498 = tested on: A498
U-251 = tested on: U-251
DU-145 = tested on: DU-145

For Brc1ccc(-c2[nH]c3ccccc3c2/N=N\c2ccccc2)cc1, which GI50 (SK-MEL-2) is on record?
Its GI50 is 20.5 µM (inactive).

What about the GI50 (HCC 2998) of the same compound?
Its GI50 is 16.8 µM (inactive).

What about the GI50 (SF-268) of the same compound?
Its GI50 is 17.9 µM (inactive).

What about the GI50 (UACC-62) of the same compound?
The GI50 was 19.8 µM (inactive).

What about the GI50 (HCT-15) of the same compound?
Its GI50 is 16.3 µM.

What about the GI50 (K562) of the same compound?
Its GI50 is 23.2 µM (inactive).

And the GI50 (Hs-578T)?
The GI50 was 20.7 µM (inactive).

What about the GI50 (786-0) of the same compound?
The GI50 was 18.2 µM (inactive).

What about the GI50 (MCF7) of the same compound?
The GI50 was 16.1 µM (inactive).

What about the GI50 (SK-OV-3) of the same compound?
The GI50 was 18.9 µM (inactive).

What about the GI50 (Malme-3M) of the same compound?
The GI50 was 19.1 µM (inactive).

And the GI50 (NCI-H23)?
The GI50 was 18.2 µM (inactive).

And the GI50 (SNB-19)?
Its GI50 is 20.9 µM (inactive).

What about the GI50 (CCRF-CEM) of the same compound?
Its GI50 is > 10 µM (inactive).

And the GI50 (BT-549)?
Its GI50 is 22 µM (inactive).

And the GI50 (RPMI-8226)?
Its GI50 is 21.7 µM (inactive).

What about the GI50 (UACC-257) of the same compound?
Its GI50 is 19.3 µM (inactive).

And the GI50 (SK-MEL-28)?
Its GI50 is 21.2 µM (inactive).

And the GI50 (MDA-MB-231)?
The GI50 was 19.1 µM (inactive).

What about the GI50 (UO-31) of the same compound?
The GI50 was 16 µM (inactive).

What about the GI50 (HL-60) of the same compound?
Its GI50 is 26.8 µM (inactive).

What about the GI50 (NCI-H522) of the same compound?
The GI50 was 17.6 µM (inactive).

And the GI50 (HCT-116)?
Its GI50 is 19 µM (inactive).

And the GI50 (SW-620)?
Its GI50 is 17.5 µM (inactive).

And the GI50 (OVCAR-3)?
Its GI50 is 12.3 µM (inactive).

And the GI50 (SR)?
Its GI50 is 15.3 µM (inactive).

What about the GI50 (MDA-N) of the same compound?
The GI50 was 16.6 µM (inactive).

And the GI50 (ACHN)?
The GI50 was 20.6 µM (inactive).

What about the GI50 (RXF 393) of the same compound?
Its GI50 is 16.6 µM (inactive).

And the GI50 (M14)?
Its GI50 is 17.5 µM (inactive).

What about the GI50 (PC-3) of the same compound?
The GI50 was 16.1 µM (inactive).

And the GI50 (HOP-92)?
The GI50 was 18.2 µM (inactive).

And the GI50 (T47D)?
The GI50 was 16.7 µM (inactive).

And the GI50 (MDA-MB-435)?
The GI50 was 19.1 µM (inactive).

What about the GI50 (MOLT-4) of the same compound?
The GI50 was 16.9 µM (inactive).

And the GI50 (SK-MEL-5)?
The GI50 was 18.3 µM (inactive).

What about the GI50 (HOP-62) of the same compound?
The GI50 was 18.1 µM (inactive).

And the GI50 (TK-10)?
The GI50 was 21.1 µM (inactive).

And the GI50 (SF-295)?
The GI50 was 18.8 µM (inactive).

And the GI50 (NCI-H460)?
Its GI50 is 17.1 µM (inactive).

And the GI50 (CAKI-1)?
Its GI50 is 14.7 µM (inactive).

What about the GI50 (SN12C) of the same compound?
The GI50 was 17.3 µM (inactive).

And the GI50 (OVCAR-5)?
The GI50 was 18.7 µM (inactive).

And the GI50 (LOX IMVI)?
The GI50 was 30.8 µM (inactive).

And the GI50 (SF-539)?
The GI50 was 17.4 µM (inactive).

And the GI50 (EKVX)?
The GI50 was 16.6 µM (inactive).

What about the GI50 (IGROV-1) of the same compound?
The GI50 was 12.1 µM (inactive).

What about the GI50 (SNB-75) of the same compound?
The GI50 was 19.5 µM (inactive).

What about the GI50 (OVCAR-4) of the same compound?
Its GI50 is 16.3 µM (inactive).

And the GI50 (COLO 205)?
The GI50 was 15 µM (inactive).

And the GI50 (KM12)?
Its GI50 is 16.5 µM (inactive).

And the GI50 (A549)?
The GI50 was 16.6 µM (inactive).

And the GI50 (A498)?
The GI50 was 25.4 µM (inactive).

What about the GI50 (U-251) of the same compound?
Its GI50 is 17.6 µM (inactive).

And the GI50 (DU-145)?
The GI50 was 17.5 µM (inactive).
